≈ marks a conversion by molar mass, not a printed value.
Experiments:
HEK293T cells [1] = assay: Voltage sensitivity in HEK cells, whole-cell patch clamp with fluorescence imaging; assay type: cell-based; conditions: for ΔF/F (%) voltage sensitivity: per 100 mV, HEK cells, whole-cell voltage clamp, 200 nM VF; for Improvement (%) in voltage sensitivity: relative to corresponding msVF
Procedure: Functional imaging of VF dyes was performed using a 20× objective paired with image capture from the EMCCD camera at a sampling rate of 0.5 kHz. VF dyes were excited using the 488 nm LED with an intensity of 2.5 W/cm^2. For initial voltage characterization emission was collected with the QUAD filter (430/32, 508/14, 586/30, 708/98 nm) after passing through a quadruple dichroic mirror (432/38, 509/22, 586/40, 654 nm LP).
Recordings were obtained with an Axopatch 200B amplifier (Molecular Devices) at room temperature. The signals were digitized with Digidata 1332A, sampled at 50 kHz and recorded with pCLAMP 10 software (Molecular Devices) on a PC. Fast capacitance was compensated in the on-cell configuration. For all electrophysiology experiments, recordings were only pursued if series resistance in voltage clamp was less than 30 MΩ. For whole-cell, voltage clamp recordings in HEK 293T cells, cells were held at −60 mV and 100 ms hyper- and depolarizing steps applied from −100 to +100 mV in 20 mV increments. For whole-cell, following membrane rupture, resting membrane potential was assessed and recorded at I=0 and monitored during the data acquisition.
Analysis of voltage sensitivity in HEK cells was performed using custom Matlab routines. Briefly, a region of interest (ROI) was selected automatically based on fluorescence intensity and applied as a mask to all image frames. Fluorescence intensity values were calculated at known baseline and voltage step epochs.
To determine the voltage sensitivity of each of the dyes, whole-cell patch clamp electrophysiology was performed on HEK293T cells loaded with 200 nM VF (FIG. 8a-d). Depolarization of the cell membrane in the presence of VF dye results in a large increase of fluorescence, while hyperpolarization results in lower levels of fluorescence (FIG. 8c-d; FIG. 9). As an illustrative comparison, msVF2.2(OMe). […] Cl, at 48% per 100 mV. The disulfoVF2.2(OMe).

[2] = Spectroscopic studies (absorbance, emission, quantum yield); assay type: physicochemical; conditions: phosphate-buffered saline, pH 7.4 with 0.1% Triton X-100
Procedure: Stock solutions of VF dyes were prepared in DMSO (1.0-10 mM) and diluted with PBS (100 mM Na2HPO4, pH 7.4, 0.1% Triton-X). UV-Vis absorbance and fluorescence spectra were recorded using a Shimadzu 2501 Spectrophotometer (Shimadzu) and a Quantamaster Master 4 L-format scanning spectrofluorometer (Photon Technologies International). The fluorometer is equipped with an LPS-220B 75-W xenon lamp and power supply, A-1010B lamp housing with integrated igniter, switchable 814 photon-counting/analog photomultiplier detection unit, and MD5020 motor driver. Samples were measured in 1-cm path length quartz cuvettes (Starna Cells).

[3] = Solubility of VoltageFluor dyes and sulfofluoresceins in water; assay type: physicochemical; conditions: for improvement of aqueous solubility by second sulfonate: ds vs ms VF dye, distilled water, 0.1% DMSO, 20 degrees Celsius, UV-Vis; for solubility at 3 days: water, 20 °C, kinetic from dmso stock, H2O with 0.1% DMSO, read-out: aqueous solubility
Procedure: Suspensions of 5 milligrams each of solid mono- and disulfo-dichlorofluoresceins in 5 mL of distilled water were created. Over the course of three days, 5 milligrams of solid material was added at a time, ensuring that no visible particulates were present in the solution prior to addition. At the end of the experiment, the suspension was filtered through filter paper and then through a 0.22-μm polytetrafluoroethylene filter into a scintillation vial. 10 μL of this filtrate was used as a stock solution to determine the concentration of fluorescein present via UV-Vis spectrophotometry and the remainder was lyophilized and the amount of solid resulting was measured using an analytical microbalance. For VF dyes (VF2.1.Cl and VF2.2(OMe).Cl, both ms and ds versions), saturated solutions in distilled water were prepared via dilution from a 100 μM stock in DMSO for a resulting solution containing 0.1% DMSO. The solutions were allowed to sit overnight at 20 degrees Celsius and then filtered through 0.22-μm filters. The resulting filtrates were used as stock solutions to determine the amount of VF present via UV-Vis spectrophotometry.

HEK293T cells [4] = assay: Membrane localization after bath loading, fluorescence imaging; assay type: cell-based; conditions: HEK cells
Excerpt: A total of 9 new dyes were made: 6 new dsVF dyes and 3 new msVF dyes. Both msVF and dsVF dyes display similar excitation and emission profiles to previously reported msVF dyes (Table 1, FIG. 7A-I), and all localized to the plasma membrane when applied to HEK293T cells via bath loading (FIG. 8a-b).

rat hippocampal neurons = assay: Staining and voltage imaging of cultured rat hippocampal neurons; assay type: cell-based
Excerpt: Cl, it was expected that disulfoVF2.2(OMe). Cl would be well-suited to observing membrane potential changes in neurons. Cultured rat hippocampal neurons bathed in disulfoVF2.2(OMe). […] Cl was also used to image neuronal activity in midbrain dopaminergic (mDA) neurons derived from cultured human pluripotent stem cells (hPSCs) in culture (FIG. 11b) using differentiation conditions adapted from previously established protocols. mDA neurons stained with dsVF2.2(OMe). […] Functional analysis of human- or patient-derived differentiated neurons in a simple, non-invasive manner enabled by dsVF2.2(OMe). Cl can provide an important diagnostic tool alongside more conventional methods in ascertaining proper differentiation as well as in investigating human disease phenotypes.

hPSC-derived mDA neurons = assay: Voltage imaging of hPSC-derived midbrain dopaminergic (mDA) neurons; assay type: cell-based, human; conditions: mDA neurons stained with 500 nM dye
Procedure: mDA neurons were derived from H1 human embryonic stem cells (hESCs) using medium conditions as described in Kriks et al., Nature, 480, 547, 2011). On Day 25 of differentiation, cells were harvested from the culture platform and pipetted to generate small 50-100 μm clusters, and seeded on 12 mm glass coverslips coated with 20 μg/ml Laminin (ThermoFischer Scientific). Cells were subsequently matured for 10 days before voltage sensitive imaging.
Functional imaging of mDA cells was performed using a 20× objective paired with image capture from the ORCA-Flash4.0 camera (Hamamatsu) at a sampling rate of 100 Hz. VoltageFluor dye was excited using the 488 nm LED with an intensity of 2.5 W/cm^2. Light was collected with the QUAD filter (430/32, 508/14, 586/30, 708/98 nm) after passing through a quadruple dichroic mirror (432/38, 509/22, 586/40, 654 nm LP). For image analysis, a custom Matlab routine was employed. Briefly, a TIFF stack was imported into Matlab and the intensity values a user-designated block of pixels was extracted as an array. The intensity over time for each block was then baseline corrected by fitting to a 2nd degree polynomial. […]

HEK cells = assay: Determination of photostability in HEK cells; assay type: cell-based; conditions: compared to msVF2.2(OMe).Cl; 1 μM, 488 nm LED
Procedure: HEK cells were incubated separately with ms- and ds-VF2.1.Cl and VF2.2(OMe). Cl at 1 μM in HBSS at 37 degrees Celsius for 15 minutes. Data were acquired with a W-Plan-Apo 63×/1.0 objective (Zeiss) and the ORCA-Flash4.0 camera (Hamamatsu). Images were exposed for 10 milliseconds each across 50 seconds with a constant illumination of the 488 nm LED (153 W/cm^2). The excitation light was collected with the QUAD filter (430/32, 508/14, 586/30, 708/98 nm) after passing through a quadruple dichroic mirror (432/38, 509/22, 586/40, 654 nm LP). The fluorescence curves were background subtracted and then normalized to the fluorescence intensity at t=0 and averaged across five cells of each dye.

Row | Φf1 (fluorescence quantum yield) [2] | λabs [2] [nm] | λem [2] [nm] | Compound | ΔF/F (%) voltage sensitivity (HEK293T cells [1]) [%] | Improvement (%) in voltage sensitivity (HEK293T cells [1]) [%] | also measured
1 | 0.14 | 509 | 540 | CN(C)c1ccc(/C=C/c2ccc(/C=C/c3cc(S(=O)(=O)O)c(-c4c5ccc(=O)cc-5oc5cc(O)ccc45)c(S(=O)(=O)O)c3)cc2)cc1 [dsVF2.1.H] | 20 | 17 | 
2 | 0.06 | 518 | 534 | CCN(CC)c1ccc(/C=C/c2ccc(/C=C/c3ccc(-c4c5cc(Cl)c(=O)cc-5oc5cc(O)c(Cl)cc45)c(S(=O)(=O)O)c3)cc2)c(OC)c1 [msVF2.2(OMe).Cl] | 53 |  | ΔF/F (%) voltage sensitivity (HEK293T cells [1]; listed as msVF2.2(OMe). Cl): approximately 53%
3 | 0.07 | 520 | 540 | CCN(CC)c1ccc(/C=C/c2ccc(/C=C/c3cc(S(=O)(=O)O)c(-c4c5cc(Cl)c(=O)cc-5oc5cc(O)c(Cl)cc45)c(S(=O)(=O)O)c3)cc2)c(OC)c1 [dsVF2.2(OMe).Cl] | 63 | 19 | ΔF/F (%) voltage sensitivity (HEK293T cells [1]; listed as disulfoVF2.2(OMe). Cl): 63%; ΔF/F (%) voltage sensitivity (HEK293T cells [1]; listed as disulfoVF2.2(OMe).Cl): 63%; ΔF/F (%) voltage sensitivity (HEK293T cells [1]; listed as dsVF2.2(OMe). Cl): approximately 63%; improvement of aqueous solubility by second sulfonate [3]: 55%; membrane localization (HEK293T cells [4]): clear membrane localization; membrane staining of neurons (rat hippocampal neurons; confocal microscopy, 500 nM): bright membrane staining; detection of membrane potential changes (rat hippocampal neurons; rat hippocampal neurons): can be used to detect membrane potential changes in rat hippocampal neurons; imaging of neuronal activity (hPSC-derived mDA neurons): revealed distinct firing patterns; photostability (HEK cells): good photostability
4 | 0.08 | 508 | 530 | CCN(CC)c1ccc(/C=C/c2ccc(/C=C/c3ccc(-c4c5ccc(=O)cc-5oc5cc(O)ccc45)c(S(=O)(=O)O)c3)cc2)c(OC)c1 [msVF2.2(OMe).H] | 53 |  | 
5 | 0.13 | 507 | 529 | CN(C)c1ccc(/C=C/c2ccc(/C=C/c3cc(S(=O)(=O)O)c(-c4c5cc(F)c(=O)cc-5oc5cc(O)c(F)cc45)c(S(=O)(=O)O)c3)cc2)cc1 [dsVF2.1.F] | 33 | 25 | 
6 | 0.11 | 510 | 530 | CCN(CC)c1ccc(/C=C/c2ccc(/C=C/c3cc(S(=O)(=O)O)c(-c4c5ccc(=O)cc-5oc5cc(O)ccc45)c(S(=O)(=O)O)c3)cc2)c(OC)c1 [dsVF2.2(OMe).H] | 57 | 9 | 

Continued, compound first:

Row | Compound | Φf1 (fluorescence quantum yield) [2] | λabs [2] [nm] | λem [2] [nm] | ΔF/F (%) voltage sensitivity (HEK293T cells [1]) [%] | Improvement (%) in voltage sensitivity (HEK293T cells [1]) [%] | also measured
7 | CN(C)c1ccc(/C=C/c2ccc(/C=C/c3cc(S(=O)(=O)O)c(-c4c5cc(Cl)c(=O)cc-5oc5cc(O)c(Cl)cc45)c(S(=O)(=O)O)c3)cc2)cc1 [dsVF2.1.Cl] | 0.08 | 520 | 539 | 36 | 21 | improvement of aqueous solubility by second sulfonate [3]: 22%
8 | 5-bromo-2′,7′-dichlorodisulfofluorescein [ds-dichlorofluorescein] |  |  |  |  |  | improvement of aqueous solubility ([3]; relative to monosulfo 5, spectroscopically or gravimetrically): 2.3 fold
9 | CCN(CC)c1ccc(/C=C/c2ccc(/C=C/c3ccc(-c4c5cc(F)c(=O)cc-5oc5cc(O)c(F)cc45)c(S(=O)(=O)O)c3)cc2)c(OC)c1 [msVF2.2(OMe).F] | 0.06 | 505 | 524 | 49 |  | 
10 | O=c1cc2oc3cc(O)c(Cl)cc3c(-c3ccc(Br)cc3S(=O)(=O)O)c-2cc1Cl [ms-dichlorofluorescein, 5-bromo-2′,7′-dichlorosulfofluorescein] |  |  |  |  |  | solubility at 3 days [3]: 410 µM (≈ 212 µg/mL)
11 | CCN(CC)c1ccc(/C=C/c2ccc(/C=C/c3cc(S(=O)(=O)O)c(-c4c5cc(F)c(=O)cc-5oc5cc(O)c(F)cc45)c(S(=O)(=O)O)c3)cc2)c(OC)c1 [dsVF2.2(OMe).F] | 0.06 | 509 | 529 | 60 | 22 | 
12 | O=c1cc2oc3cc(O)c(Cl)cc3c(-c3c(S(=O)(=O)O)cc(Br)cc3S(=O)(=O)O)c-2cc1Cl [ds-dichlorofluorescein, 5-bromo-2′,7′-dichlorodisulfofluorescein] |  |  |  |  |  | solubility at 3 days [3]: ≤ 940 µM

Source: patent publication US10370351B2, “Photoinduced electron transfer voltage-sensitive compounds” (The Regents of the University of California, priority 2016, dated 2019)
